Drawing on ChEMBL document CHEMBL3797180, “Squaramides with cytotoxic activity against human gastric carcinoma cells HGC-27: synthesis and mechanism of action” (Medchemcomm, 2016), this text covers inhibition, IC50 and Activity for 36 molecules.

Activity calls are given as the source filed them. The calls are words filed in the database; no cut-off is given here.

For assay [1], the system named is HeLa. The experiment in a line: Cytotoxicity against human HeLa cells assessed as inhibition of cell viability at 100 uM after 24 hrs by MTT assay. In kind it is functional, cell-based. A general note: Formazan colour is commonly taken as a measure of viable cells.
In assay [2] the test system is HGC-27. Nature of the assay: Cytotoxicity against HGC27 cells assessed as inhibition of cell viability at 100 uM after 24 hrs by MTT assay. Type of assay: functional, cell-based. Conditions: Homo sapiens.
Assay [3] deals with HeLa. Nature of the assay: Cytotoxicity against human HeLa cells assessed as inhibition of cell viability at 20 uM after 24 hrs by MTT assay. Type of assay: functional, cell-based.
For assay [4], the system named is HGC-27. Nature of the assay: Cytotoxicity against HGC27 cells assessed as inhibition of cell viability at 20 uM after 24 hrs by MTT assay. In kind it is functional, cell-based. Conditions: Homo sapiens.
A short description of assay [5]: Cytotoxicity against HGC27 cells after 24 hrs by MTT assay. In kind it is functional, cell-based. Conditions: Homo sapiens, HGC-27, 24 h.
Assay [6] relates to HeLa. Nature of the assay: Cytotoxicity against human HeLa cells after 24 hrs by MTT assay. Type of assay: functional, cell-based.
Assay [7] deals with HGC-27. Nature of the assay: Induction of apoptosis in HGC27 cells assessed as apoptotic cells after 24 hrs by Annexin-V-FITC/propidium iodide staining-based flow cytometry. Type of assay: functional, cell-based. Conditions: Homo sapiens.
Assay [8] has as its system HGC-27. Nature of the assay: Induction of apoptosis in HGC27 cells assessed as early apoptotic cells at 2 uM after 24 hrs by Annexin-V-FITC/propidium iodide staining-based flow cytometry (reference value: 6.7%). In kind it is functional, Homo sapiens. For orientation: A flow cytometer gives signals particle by particle.
Assay [9] concerns HGC-27. Nature of the assay: Induction of apoptosis in HGC27 cells assessed as late apoptotic cells at 2 uM after 24 hrs by Annexin-V-FITC/propidium iodide staining-based flow cytometry (reference value: 6.7%). Type of assay: functional, Homo sapiens.
The test system of assay [10] is HGC-27. Nature of the assay: Induction of apoptosis in HGC27 cells assessed as necrotic cells at 2 uM after 24 hrs by Annexin-V-FITC/propidium iodide staining-based flow cytometry. Type of assay: functional, Homo sapiens.

As for `C=CC1CN2CCC1CC2[C@@H](Nc1c(NCc2cc(C(F)(F)F)cc(C(F)(F)F)c2)c(=O)c1=O)c1ccnc2ccc(OC)cc12` (stereo partly drawn), the inhibition result in the assay with HeLa [1] and with HGC-27 [2] was “Active” in each case.

As for `Cc1ccc(S(=O)(=O)N[C@@H]2CCCC[C@H]2Nc2c(Nc3cc(C(F)(F)F)cc(C(F)(F)F)c3)c(=O)c2=O)cc1`, the inhibition result with HeLa [1] and in the assay on HGC-27 [2] was “Active” in each case. The inhibition entry in the assay on HeLa [3] and in the assay on HGC-27 [4] was “inactive” throughout.

As for `CCc1cc(C#N)ccc1Nc1c(OC)c(=O)c1=O`, the inhibition entry with HeLa [1] and in the assay on HGC-27 [2] was “inactive” throughout.

Consider `O=c1c(Nc2cc(C(F)(F)F)cc(C(F)(F)F)c2)c(N[C@@H](CO)Cc2ccccc2)c1=O`, for which the inhibition entry in the assay with HeLa [1] and in the assay on HGC-27 [2] was “Active” throughout. Further, the inhibition entry with HeLa [3] and in the assay with HGC-27 [4] was “inactive” each time.

Consider `COc1c(Nc2cc(OC(C)C)c(Cl)cc2Cl)c(=O)c1=O`, for which the inhibition entry in the assay on HeLa [1] and with HGC-27 [2] was “inactive” in each case.

As a reminder, the IC50 is the concentration that inhibits the measured activity by half. Higher therefore signals a need for much substance. Turning to `C=CC1CN2CCC1CC2[C@@H](Nc1c(Nc2ccc(C(F)(F)F)cc2)c(=O)c1=O)c1ccnc2ccc(OC)cc12` (stereo partly drawn), the inhibition entry with HeLa [1], with HGC-27 [2] and in the assay with HGC-27 [4] was “Active” throughout. Further, the inhibition entry in the assay on HeLa [3] is “inactive”. For the same molecule, the half-inhibitory concentration (IC50) in [5] was 12.8 µM; with HeLa [6], more than 20 µM.

Turning to `O=c1c(Nc2ccc(C(F)(F)F)cc2)c(N[C@@H]2CCCC[C@@H]2N2CCCCC2)c1=O`, the inhibition result in the assay with HeLa [3] and in the assay with HGC-27 [4] was “inactive” throughout.

In the case of `COc1c(N[C@@H]2CCCC[C@H]2NS(=O)(=O)c2ccc(C)cc2)c(=O)c1=O`, the inhibition result in the assay on HeLa [1] and in the assay with HGC-27 [2] was “inactive” throughout.

For `O=c1c(NCc2cc(C(F)(F)F)cc(C(F)(F)F)c2)c(N[C@@H]2CCCC[C@H]2N2CCCCC2)c1=O`, the inhibition entry in the assay with HeLa [1] and in the assay with HGC-27 [2] was “Active” each time.

With `C[C@@H](Nc1c(Nc2cc(C(F)(F)F)cc(C(F)(F)F)c2)c(=O)c1=O)c1ccccc1`, the inhibition entry with HeLa [1] and with HGC-27 [2] was “Active” throughout. The inhibition result in the assay with HeLa [3] and in the assay with HGC-27 [4] was “inactive” in each case.

Consider `COc1c(Nc2cc(F)c(F)c(F)c2)c(=O)c1=O`, for which the inhibition result in the assay on HeLa [1] and in the assay on HGC-27 [2] was “inactive” throughout.

As to `COc1c(N[C@H]2c3ccccc3C[C@H]2O)c(=O)c1=O`, the inhibition result with HeLa [1] and in the assay on HGC-27 [2] was “inactive” throughout.

Consider `O=c1c(Nc2cc(C(F)(F)F)cc(C(F)(F)F)c2)c(N[C@H]2c3ccccc3C[C@H]2O)c1=O`, for which the inhibition result with HeLa [1] and in the assay on HGC-27 [2] was “Active” throughout.

As to `COc1ccc(Nc2c(OC)c(=O)c2=O)cc1`, the inhibition entry in the assay with HeLa [1] and in the assay on HGC-27 [2] was “inactive” each time.

Turning to `C=CC1CN2CCC1CC2[C@@H](Nc1c(Nc2cc(C(F)(F)F)cc(C(F)(F)F)c2)c(=O)c1=O)c1ccnc2ccccc12` (stereo partly drawn), the inhibition result in the assay on HeLa [1], in the assay on HGC-27 [2], in the assay on HeLa [3] and with HGC-27 [4] was “Active” in each case. Besides, the IC50 in [5] worked out at 8.12 µM; in the assay on HeLa [6] it was 11.3 µM.

For `C=CC1CN2CCC1CC2[C@@H](Nc1c(Nc2cc(C(F)(F)F)cc(C(F)(F)F)c2)c(=O)c1=O)c1ccnc2ccc(OC)cc12` (stereo partly drawn), the inhibition entry in the assay with HeLa [1], with HGC-27 [2], in the assay with HeLa [3] and in the assay with HGC-27 [4] was “Active” throughout. Moreover, the half-inhibitory concentration (IC50) in assay [5] worked out at 8.21 µM; with HeLa [6], 15.2 µM.

In the case of `COc1c(N(C)c2ccccc2)c(=O)c1=O`, the inhibition entry in the assay with HeLa [1] and in the assay on HGC-27 [2] was “inactive” in each case.

As to `C[C@H](c1c(Nc2cc(F)cc(F)c2)c(=O)c1=O)c1cccc2ccccc12`, the inhibition result with HeLa [3] and in the assay on HGC-27 [4] was “Active” each time.

For the molecule `O=c1c(Nc2cc(F)c(F)c(F)c2)c(N[C@@H]2CCCC[C@H]2N2CCCCC2)c1=O`, the inhibition result in the assay with HeLa [3] and in the assay on HGC-27 [4] was “inactive” each time.

For the molecule `O=c1c(Nc2ccc3ccccc3c2-c2c(O)ccc3ccccc23)c(N[C@@H]2CCCC[C@H]2N2CCCCC2)c1=O`, the inhibition entry in the assay on HeLa [3] was “inactive”. The inhibition entry in the assay with HGC-27 [4] was “Active”. For the same molecule, the IC50 in assay [5] was 11.1 µM; with HeLa [6] it was more than 20 µM.

On to `COc1c(Nc2ccc(C(C)(C)C)cc2)c(=O)c1=O`, for which the inhibition result in the assay with HeLa [1] and with HGC-27 [2] was “inactive” in each case.

On to `C=CC1CN2CCC1CC2[C@@H](Nc1c(Nc2ccc(C(F)(F)F)cc2)c(=O)c1=O)c1ccnc2ccccc12` (stereo partly drawn), for which the inhibition result in the assay with HeLa [1], in the assay with HGC-27 [2], in the assay with HeLa [3] and in the assay with HGC-27 [4] was “Active” each time. Moreover, the values for the half-inhibitory concentration (IC50) (in assay [5]; with HeLa [6]) were 4.53 µM and 10.8 µM, respectively.

Consider `COc1c(Nc2cc(F)cc(F)c2)c(=O)c1=O`, for which the inhibition entry in the assay with HeLa [1] and in the assay on HGC-27 [2] was “inactive” each time.

On to `O=c1c(Nc2cc(F)cc(F)c2)c(N[C@@H](c2ccccc2)C(O)(c2ccccc2)c2ccccc2)c1=O`, for which, in the assay on HeLa [3], the inhibition result is “inactive”. Also, the inhibition entry in the assay on HGC-27 [4] is “Active”. In addition, the figures for the IC50 (in [5]; with HeLa [6]) were 3.39 µM and more than 20 µM, respectively.

Take `Cc1ccc(S(=O)(=O)N[C@@H]2CCCC[C@H]2Nc2c(NCc3cc(C(F)(F)F)cc(C(F)(F)F)c3)c(=O)c2=O)cc1`: the inhibition result with HeLa [1] and in the assay with HGC-27 [2] was “Active” in each case. The inhibition result in the assay on HeLa [3] and with HGC-27 [4] was “inactive” each time.

In the case of `O=c1c(Nc2ccc3ccccc3c2-c2c(O)ccc3ccccc23)c(N[C@@H]2CCCC[C@H]2N2CCCC2)c1=O`, in the assay with HeLa [3], the inhibition result was “inactive”. Besides, the inhibition entry in the assay with HGC-27 [4] is “Active”. The IC50 in assay [5] was 10.8 µM; in the assay on HeLa [6], more than 20 µM.

Take `O=c1c(Nc2ccc(C(F)(F)F)cc2)c(N[C@@H]2CCCC[C@H]2N2CCCCC2)c1=O`: the inhibition result in the assay with HeLa [3] and in the assay with HGC-27 [4] was “inactive” throughout.

In the case of `COc1c(Nc2ccc([N+](=O)[O-])cc2)c(=O)c1=O`, the inhibition result in the assay with HeLa [1] and in the assay on HGC-27 [2] was “inactive” in each case.

Consider `COc1c(Nc2ccccc2)c(=O)c1=O`, for which the inhibition entry in the assay on HeLa [1] and in the assay on HGC-27 [2] was “inactive” throughout.

Regarding `O=c1c(Nc2cc(C(F)(F)F)cc(C(F)(F)F)c2)c(N[C@@H]2CCCC[C@H]2N2CCCCC2)c1=O`, the inhibition entry in the assay on HeLa [1], in the assay on HGC-27 [2], with HeLa [3] and in the assay with HGC-27 [4] was “Active” in each case.

Consider `C=CC1CN2CCC1CC2[C@H](Nc1c(NCc2cc(C(F)(F)F)cc(C(F)(F)F)c2)c(=O)c1=O)c1ccnc2ccccc12` (stereo partly drawn), for which the inhibition result in the assay with HeLa [1], with HGC-27 [2], in the assay with HeLa [3] and with HGC-27 [4] was “Active” each time. In addition, the IC50 stood at 3.01 µM in [5] and 12.1 µM in the assay on HeLa [6].

Take `COc1ccc(Nc2c(OC)c(=O)c2=O)c(OC)c1`: the inhibition result in the assay with HeLa [1] and in the assay with HGC-27 [2] was “inactive” throughout.

As to `COc1c(Nc2ccc(C(F)(F)F)cc2)c(=O)c1=O`, the inhibition entry in the assay on HeLa [1] and in the assay on HGC-27 [2] was “inactive” each time.

As for `CN(C)[C@@H]1CCCC[C@H]1Nc1c(Nc2cc(C(F)(F)F)cc(C(F)(F)F)c2)c(=O)c1=O`, the inhibition result in the assay with HeLa [1] and in the assay with HGC-27 [2] was “Active” throughout. Besides, the inhibition entry in the assay with HeLa [3] and in the assay on HGC-27 [4] was “inactive” throughout.

`COc1cccc2c1C(=O)c1c(O)c3c(c(O)c1C2=O)C[C@@](O)(C(=O)CO)C[C@@H]3O[C@H]1C[C@H](N)[C@H](O)[C@H](C)O1` [DOXORUBICIN] had an IC50 in assay [5] of 37.4 µM. The Activity result in the assay with HGC-27 [7] is “Dose-dependent effect”; in the assay with HGC-27 [8] it was 3.2%; in the assay with HGC-27 [9], 16.7%; in the assay with HGC-27 [10] it was 32.4%.

Consider `COc1c(N[C@@H](C)c2cccc3ccccc23)c(=O)c1=O`, for which the inhibition entry in the assay with HeLa [1] and in the assay on HGC-27 [2] was “inactive” in each case.
